Laboratory results from patent US20040014143A1, “Method and apparatus for detecting and monitoring peptides, and peptides identified therewith” (priority 2002, published 2004).
Read-outs that look alike come from different tables or passages of the source.

Tests used:
opioid receptors = assay: Receptor assays probing binding to opioid receptors; settings: data not shown
[1] = system: neurotransmitter levels (aspartate, GABA, glutamate); settings: infusion of 10 μM peptide into the dialysis probe, n=2
GABA production = settings: previous microdialysis studies; cited from earlier work

Compound	binding to opioid receptors (opioid receptors)	GABA level (change in words) [1]	aspartate level (change in words) [1]	glutamate levels (change in words) [1]	GABA level (change in words) ([1]; listed as I11lo peptide)	aspartate level (change in words) ([1]; listed as I11lo peptide)	effect on GABA production (GABA production)	glutamate levels (GABA production)
SPQLEDEAKE (listed as Rattus norvegicus) [peptide I1-10]	negative	increase	increase	remained the same	increases	increases	–	–
CN1CCc2cccc3c2[C@H]1Cc1ccc(O)c(O)c1-3 [apomorphine]	–	–	–	–	–	–	stimulates GABA production	remain the same
YGGFL [Leu-enkephalin]	–	–	–	–	–	–	inhibits nicotine-stimulated GABA production	–
